C[N+](C)(C)CC(=O)[O-]
Conditions	solubility (mole fraction)
in DMSO, 288.51 K	0.001
in DMSO, 292.73 K	0.00116
in DMSO, 298.34 K	0.00139
in DMSO, 305.16 K	0.00172
in DMSO, 308.53 K	0.0019
in DMSO, 313.2 K	0.00219
in DMSO, 318.16 K	0.00253
in DMSO, 322.88 K	0.00291
in DMSO, 327.87 K	0.00334
in DMSO, 333.58 K	0.00391
in acetic acid, 292.83 K	0.23
in acetic acid, 297.84 K	0.239
in acetic acid, 302.28 K	0.252
in acetic acid, 308.31 K	0.268
in acetic acid, 312.79 K	0.279
in acetic acid, 317.76 K	0.298
in acetic acid, 322.58 K	0.306
in acetic acid, 328.87 K	0.327
in acetic acid, 333.12 K	0.344
in ethylene glycol, 283.42 K	0.102
in ethylene glycol, 288.53 K	0.109
in ethylene glycol, 292.46 K	0.117
in ethylene glycol, 298.03 K	0.125
in ethylene glycol, 303.87 K	0.137
in ethylene glycol, 308.52 K	0.145
in ethylene glycol, 314.59 K	0.161
in ethylene glycol, 318.19 K	0.167
in ethylene glycol, 323.98 K	0.183
in ethylene glycol, 328.33 K	0.192
in isopentanol, 286.47 K	0.000166
in isopentanol, 289.13 K	0.000185
in isopentanol, 293.93 K	0.000225
in isopentanol, 298.25 K	0.000269
in isopentanol, 302.72 K	0.000316
in isopentanol, 307.37 K	0.000378
in isopentanol, 314.06 K	0.000477
in isopentanol, 318.23 K	0.000556
in isopentanol, 322.6 K	0.000646
in n-pentanol, 285.88 K	0.000216
in n-pentanol, 289.5 K	0.000249
in n-pentanol, 294.44 K	0.000301
in n-pentanol, 299.59 K	0.000368
in n-pentanol, 304.38 K	0.000436
in n-pentanol, 309.45 K	0.000523
in n-pentanol, 313.8 K	0.000609
in n-pentanol, 318.18 K	0.000705
in n-pentanol, 323.02 K	0.000822
